The values below are quoted from earlier work in patent US20160253451A1, “METHOD OF USING A WATER-BASED PHARMACOPHORE” (KOREA UNIVERSITY, priority 2013, published 2016).

The target in this data set is streptavidin (Streptomyces avidinii, UniProt P22629). The conditions noted are these: streptavidin-biotin complex.
Chain of streptavidin (P22629 25-183, species assumed): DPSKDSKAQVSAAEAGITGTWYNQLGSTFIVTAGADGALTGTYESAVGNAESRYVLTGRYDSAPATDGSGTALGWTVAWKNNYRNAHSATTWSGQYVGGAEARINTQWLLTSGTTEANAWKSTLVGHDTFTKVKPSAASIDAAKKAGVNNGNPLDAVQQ

Take `O=C(O)CCCC[C@@H]1SC[C@@H]2NC(=O)N[C@@H]21` [biotin]: the actual affinity was -18.3 kcal/mol.
